We go through 2 compounds from patent publication US8586822B2, “Methods for producing a non human model for aortic aneurysm” (INSERM (Institut National de la Sante et de la Recherche …, priority 2007, dated 2013).

In experiment [1] the test system is AAA. The settings on record: in vivo; cited from earlier work.
Experiment [2] has as its system CD28− mice treated with angiotensin II. As to the kind of experiment: CD28− mice treated with angiotensin II and trichostatin. It is filed as in vivo, mouse. To be noted: 1 mg/kg/day for 14 days, angiotensin II-infused CD28− mice. Here is the method:
Baseline blood pressure measurements were determined on 5 consecutive days. After these baseline recordings, an osmotic minipump (Alzet Model 2004; DURECT) infusing Angiotensin II (Ang II) (Sigma, St. Louis, Mo.) at a rate of 1,000 ng/kg/min was implanted s.c. and blood pressure measurements continued for 28 days to verify continuous hypertension. The animals ingested either a normal diet containing 0.4% sodium chloride or a high salt diet with 5% sodium chloride (SDS) to accentuate hypertension and kidney injury. All animals studied were between 8 and 14 wk old. The protocol followed the French Department of Agriculture and the National Institute of Health guidelines for animal care and protection. For both strains, all experiments used age- and sex-matched wild-type and genetically altered animals with similar genetic background (C57Bl/6J background). Normal C57Bl/6J and CD28 deficient animals were obtained from Charles River Laboratories. B7.1/B7.2 (CD80/CD86) deficient animals were obtained from Dr. Benoit Salomon (Université Pierre et Marie Curie-CNRS U7087 laboratory, Paris). Anti-pan-TGF-beta antibody (clone 2G7) was administrated thrice a week i.p. at the dose of 500 μg/mouse for two weeks, then at the dose of 150 μg/mouse for the following two weeks. […]

In the case of `CC[C@H]1OC(=O)[C@H](C)[C@@H](O[C@H]2C[C@@](C)(OC)[C@@H](O)[C@H](C)O2)[C@H](C)[C@@H](O[C@@H]2O[C@H](C)C[C@H](N(C)C)[C@H]2O)[C@](C)(O)C[C@@H](C)/C(=N\OCOCCOC)[C@H](C)[C@@H](O)[C@]1(C)O` [roxithromycin], the “effects in AAA” value in experiment [1] is recorded as “modest effects”.

Regarding `CC(/C=C/C(=O)NO)=C\[C@@H](C)C(=O)c1ccc(N(C)C)cc1` [trichostatin], the aneurysm result in experiment [2] is recorded as “prevented aneurysm”.
